Data set [1] has as its system C57BL/6 mice. The experiment in a line: Niacin-induced flushing: laser Doppler ear blood flow in anesthetized mice. It counts as in vivo, mouse. The conditions noted are these: for peak ear tissue perfusion after niacin (composite, FIG. 9): i.p. 30 minutes before niacin 30 mg/kg, TPAU 0.01-1 mg/kg, others 4 mg/kg. The protocol:
For the experiments, mice were anesthetized using Nembutal (50 mg/kg) given by intraperitoneal (I.P.) injection. […]
Laser Doppler ear blood flow: The change in ear flow was measured using a laser doppler flowmeter (BLF 21, on loan from Transonic Systems, Inc., Ithaca, N.Y.). […] The laser doppler probe was fitted with a sleeve of 2 mm length plastic tubing and attached to a micromanipulator to standardize the depth of the tissue being measured. Blood flow was measured at 30 second intervals before and during exposure to compounds. Baseline blood flow was established by the average of measurements over 5 min prior to injection of drug or vehicle. Data were analyzed as a fraction of baseline.
Mice were anesthetized with Nembutal™ (50 mg/kg) and ear cutaneous perfusion was measured as explained above. Animals were then injected with a niacin solution (30 mg/kg, in physiological saline) and response (% tissue perfusion) after 3 minutes measured.

The target in a further data set is T1, recombinant murine sEH (Mus musculus, UniProt P34914).
T1 sequence (P34914 1-554): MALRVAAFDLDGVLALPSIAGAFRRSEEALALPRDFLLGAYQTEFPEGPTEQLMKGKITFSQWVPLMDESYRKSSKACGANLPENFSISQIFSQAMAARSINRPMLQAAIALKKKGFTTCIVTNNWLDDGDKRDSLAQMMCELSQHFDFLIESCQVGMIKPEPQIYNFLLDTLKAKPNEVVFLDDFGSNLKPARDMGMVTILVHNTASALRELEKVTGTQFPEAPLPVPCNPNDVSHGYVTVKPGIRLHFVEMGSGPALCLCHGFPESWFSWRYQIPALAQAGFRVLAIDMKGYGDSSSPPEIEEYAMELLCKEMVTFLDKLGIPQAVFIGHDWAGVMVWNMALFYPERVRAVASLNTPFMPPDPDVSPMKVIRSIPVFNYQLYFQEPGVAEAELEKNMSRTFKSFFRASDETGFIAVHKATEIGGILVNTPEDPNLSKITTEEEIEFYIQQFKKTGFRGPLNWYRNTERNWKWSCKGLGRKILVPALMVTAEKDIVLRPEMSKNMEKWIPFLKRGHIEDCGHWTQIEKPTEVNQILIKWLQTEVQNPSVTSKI
Kind of data set: Inhibition of recombinant murine sEH. It counts as biochemical.

The target in data set [2] is T2, sEH (Homo sapiens, UniProt P34913).
T2 sequence (P34913 1-555): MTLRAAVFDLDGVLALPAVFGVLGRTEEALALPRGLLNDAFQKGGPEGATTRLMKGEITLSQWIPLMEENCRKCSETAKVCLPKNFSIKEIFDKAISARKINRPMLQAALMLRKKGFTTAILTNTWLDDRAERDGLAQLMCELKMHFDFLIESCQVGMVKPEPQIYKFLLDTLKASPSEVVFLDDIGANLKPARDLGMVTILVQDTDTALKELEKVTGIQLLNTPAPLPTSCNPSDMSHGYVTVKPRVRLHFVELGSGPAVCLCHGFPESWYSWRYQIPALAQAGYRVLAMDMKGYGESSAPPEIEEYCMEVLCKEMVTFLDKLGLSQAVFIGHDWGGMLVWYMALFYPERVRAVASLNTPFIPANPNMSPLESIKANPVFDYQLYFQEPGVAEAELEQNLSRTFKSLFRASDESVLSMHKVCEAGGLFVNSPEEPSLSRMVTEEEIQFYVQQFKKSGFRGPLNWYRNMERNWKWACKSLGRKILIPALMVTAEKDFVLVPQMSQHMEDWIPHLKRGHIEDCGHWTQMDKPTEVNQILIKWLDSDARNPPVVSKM
Kind of data set: Inhibition of recombinant human sEH. Type of data set: biochemical.

In the next data set the test system is mouse ear. Kind of data set: Capsaicin applied to the mouse ear: tissue perfusion. Type of data set: in vivo. An excerpt: Tachyphylaxis to the flushing effect of niacin is well known, although the mechanism has not been elucidated. […] Tachyphylaxis to the vasodilatory effect of capsaicin is likely mediated by repetitive activation of transient receptor potential channels, in particular TRPV1, with resultant desensitization and internalization. See, Fan et al., J Biol Chem (2009) 284:27884-91; Myers, et al., Neuron (2007) 54:847-50. […] Subsequently, mice were exposed to capsaicin daily for 3 days (treated topically, 4 times per day), resulting in abolition of the acute vasodilatory response (i.e. tachyphylaxis to capsaicin). […] Although the exact sequence of events following niacin exposure is not clear it seems that niacin activates a number of targets simultaneously.

Data set [3] deals with C57BL/6 mice. Kind of data set: Eicosanoid analysis by LC-MS/MS in plasma/serum of mice given niacin +/- sEHi. Type of data set: in vivo, mouse.
Data set [4] has as its system C57BL/6 mice. Kind of data set: Eicosanoid analysis by LC-MS in ear tissue of mice given niacin +/- sEHi. Type of data set: in vivo, mouse. The conditions noted are these: for products of the 5-lipoxygenase pathway in ear tissue: niacin 30 mg/kg subcutaneously, TPAU 3 mg/kg pre-treatment, FIG. 10. The protocol:
Samples were spiked with a suite of odd chain length analogs (surrogates) then solvent extracted and partially purified by passing through a solid phase (SP) extraction column using Oasis HLB cartridges. The loaded column was washed with 2 mL 2.5 mM H2PO4+10% methanol and dried under vacuum. Target analytes were eluted with 2 mL of ethyl acetate. The collected extracts were evaporated to dryness under nitrogen, re-dissolved in a final volume of 100 μL with methanol containing deuterated isomers of internal standards including prostaglandins, thromboxanes, epoxides, diols, of arachidonic acid, which allows accurate surrogate recovery calculations and stored at −20° C. until analysis. A 10-20 μL aliquot of each sample was separated by reversed phase HPLC chromatography on a 150 mm×2 mm I.D. 5 μm particle size C18 column using a gradient of water-0.1% acetic acid and 89:11 acetonitrile/methanol (v/v)-0.1% acetic acid. […] The system was calibrated with a minimum of five calibration solutions containing analytical targets at concentrations ranging from 1 to 1000 nM. The analysis of each sample was repeated three times. Calibration check solutions were analyzed at a minimum frequency of 10 hours to ensure stability of the analytical calibration throughout a given analysis.
As the flushing effect of niacin is essentially local rather than systemic, the effect of niacin +/−sEHi on ear tissue prostaglandins were also examined by LC-MS.
Products of the 5-lipoxygenase pathway are generally considered pro-inflammatory.

Data set [5] concerns C57BL/6 mice. The experiment in a line: PGD2-induced vasodilation/flushing, ear perfusion in mice. Type of data set: in vivo, mouse. The protocol: Mouse Model: C57BL/6 mice were obtained from Charles River Laboratories (location). sEHi knockout mice were generated at UC Davis using the C57BL/6 background [EnayetAllah, et al., J Biol. Chem. (2008) 283(52):36592-8]. For the experiments, mice were anesthetized using Nembutal (50 mg/kg) given by intraperitoneal (I.P.) injection. […]
Laser Doppler ear blood flow: The change in ear flow was measured using a laser doppler flowmeter (BLF 21, on loan from Transonic Systems, Inc., Ithaca, N.Y.). As described by Cheng et al [Proc Natl Acad Sci (2006) 103(17):6682-7] the flow probe was placed against the ventral aspect of the right ear of the anesthetized mouse. The laser doppler probe was fitted with a sleeve of 2 mm length plastic tubing and attached to a micromanipulator to standardize the depth of the tissue being measured. Blood flow was measured at 30 second intervals before and during exposure to compounds. Baseline blood flow was established by the average of measurements over 5 min prior to injection of drug or vehicle. Data were analyzed as a fraction of baseline.

A further data set deals with COX-2 / COX-1. The following applies: cited from earlier work.
For data set [6] the following is noted: 325 mg of aspirin, Dunn et al 1995; cited from earlier work.
Data set [7] has as its target T2, sEH. Kind of data set: sEH inhibition, assay not specified. It counts as biochemical. An excerpt: (§1) (Both the 1- and the 2-adamantyl ureas have been tested and have about the same high activity as an inhibitor of sEH.) Thus, isomers of adamantyl dodecyl urea are preferred inhibitors. It is further expected that N,N′-dodecyl-cyclohexyl urea (DCU), and other inhibitors of sEH, and particularly dodecanoic acid ester derivatives of urea, are suitable for use in the methods of the invention.

Data set [8] in a line: Metabolic stability, method not given. It counts as in vitro ADME.
Text: as §1

The mark [9] stands for this setting: niacin 30 mg/kg, wild type mice, FIG. 6.

`COc1cc(CNC(=O)CCCC/C=C/C(C)C)ccc1O` [capsaicin]: the “vasodilatory response to niacin after capsaicin tachyphylaxis” value with C57BL/6 mice [1] (capsaicin topically 4 times per day for 3 days, FIG. 11) is “blunted vasodilatory response”. Further, the “flushing response to niacin after capsaicin tachyphylaxis plus acute topical capsaicin” value in the data set on C57BL/6 mice [1] (repeated capsaicin then acute topical capsaicin prior to niacin injection) is on record as “abolished”. Besides, the half-maximal inhibitory concentration (IC50) on recombinant murine sEH and at sEH [2] was 1500 nM each time. Moreover, the “ear tissue perfusion after topical capsaicin” value in the data set on mouse ear is “time-dependent increase in tissue perfusion”.

For the molecule `O=C(O)c1cccnc1` [niacin, pyridine-3-carboxylic acid], in the data set with C57BL/6 mice [1] (setting [9]), the “increase in ear perfusion” value was around 400% and the “time of peak ear perfusion after injection” value was “approximately 4 minutes”. Also, the “plasma levels of EETs (total EETs or ratio EETs/DHETs)” value in the data set on C57BL/6 mice [3] (niacin 30 mg/kg subcutaneous alone) is given as “reduced plasma levels of EETs”. In the data set with C57BL/6 mice [3] (niacin alone), the “PGE2 levels in serum” value was “without altering PGE2 levels” and the “increase of PGD2 levels in serum” value was “approximately 100%”. In addition, the “ear tissue PGD2 level” value in the data set on C57BL/6 mice [4] (LC-MS, unit not given) came out at 33214. For the same molecule, the “products of the 5-lipoxygenase pathway in ear tissue” value in the data set with C57BL/6 mice [4] was “increased products of the 5-lipoxygenase pathway”. For the same molecule, the “increase of ear tissue PGD2” value in the data set with C57BL/6 mice [4] (niacin vs control, P=0.09) is on record as 21%.

In the case of `CC(C)(C)c1ccc(/C=C/C(=O)Nc2ccc3c(c2)OCCO3)cc1` [AMG9810], the “flushing response to niacin” value in the data set on C57BL/6 mice [1] (AMG9810 10 mg/kg IP, in the animal tested) is “abolished the flushing response to niacin”. In addition, the “flushing response to PGD2” value in the data set on C57BL/6 mice [5] (AMG9810 10 mg/kg IP, FIG. 12) is “blunted the biologic response to PGD2”.

In the case of `COc1ccc2c(c1)c(CC(=O)O)c(C)n2C(=O)c1ccc(Cl)cc1` [indomethacin], in the data set with COX-2 / COX-1, the “COX-2 (IC50)/COX-1 (IC50) ratio” value is recorded as 33.

Turning to `O=C(NC1CCN(C(=O)C(F)(F)F)CC1)NC12CC3CC(CC(C3)C1)C2` [TPAU, N-(1-(2,2,2-trifluoroethanoyl)piperidin-4-yl)-N′-(adamant-1-yl)urea], the “peak perfusion after niacin” value with C57BL/6 mice [1] (TPAU 0.05 mg/kg to 1 mg/kg, FIG. 8) was “significant reduction in peak perfusion”. Moreover, the “flushing (% tissue perfusion 3 minutes after niacin)” value in the data set on C57BL/6 mice [1] (TPAU 0.01 to 1 mg/kg, 1 hour prior to niacin 30 mg/kg, n=4-6) is “dose-dependently reduced flushing”. In the data set on C57BL/6 mice [1], the “peak ear tissue perfusion after niacin (composite, FIG. 9)” value (from here on “peak ear tissue perfusion after niacin”) is “significantly reduced peak ear tissue perfusion”. Moreover, the “dose giving total inhibition of flushing” value in the data set on C57BL/6 mice [1] (mice, niacin 30 mg/kg) worked out at 0.3 mg/kg. In the data set with C57BL/6 mice [1] (mice, niacin 30 mg/kg, TPAU pre-treatment), the “Ki50 for inhibition of niacin-induced flushing” value is on record as “approximately 0.01 mg/kg”. Further, in the data set on C57BL/6 mice [5] (TPAU pretreatment at a concentration sufficient to inhibit niacin-induced perfusion increase, FIG. 4), the “PGD2-induced increase in perfusion” value was “did not limit the increase in perfusion with administration of PGD2”. The “PGD2 levels with niacin + sEHi” value in the data set on C57BL/6 mice [3] (TPAU 3 mg/kg, FIG. 5) is listed as “did not result in the expected reduction in PGD2”. In addition, the “niacin-induced reduction of plasma EETs and ratio EETs/DHETs” value with C57BL/6 mice [3] (sEHi TPAU 3 mg/kg, niacin 30 mg/kg, FIG. 1-3) is recorded as “counters this reduction in EETs”. In addition, in the data set with C57BL/6 mice [4], the “products of the 5-lipoxygenase pathway in ear tissue” value is “limited or abrogated niacin-induced increases in products of the 5-lipoxygenase pathway”.

Take `CC(=O)Oc1ccccc1C(=O)O` [aspirin]: in the data set on C57BL/6 mice [1], the “peak ear tissue perfusion after niacin” value is reported as “significantly reduced peak ear tissue perfusion”. For the same molecule, the “COX-2 (IC50)/COX-1 (IC50) ratio” value with COX-2 / COX-1 was 0.32. The “effectiveness against niacin flushing” value in data set [6] is given as “more effective than 165 mg of aspirin or 200 mg ibuprofen”.

With `CNC(=O)c1cc(Oc2ccc(NC(=O)Nc3ccc(Cl)c(C(F)(F)F)c3)cc2)ccn1` [sorafenib], the “peak ear tissue perfusion after niacin” value with C57BL/6 mice [1] was “significantly reduced peak ear tissue perfusion”.

Turning to `CCCCCCCCCCCCNC(=O)NC12CC3CC(CC(C3)C1)C2` [ADU, N-Adamantyl-N′-dodecyl urea], the “activity on sEH” value at sEH [7] is given as “particularly high activity on sEH”. Also, in data set [8], the metabolic stability entry is on record as “metabolically stable”.
